Results published in ChEMBL document CHEMBL1201862, “PubChem BioAssay data set” (2004).
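Exposure lasted 48 hours, with cells grown in 96-well plates and compounds tested at five concentrations. Here, GI50 denotes the concentration required for 50% inhibition of growth.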 Calls of active or inactive are those of the source. No stated cut-off is given here; in the data, active = GI50 up to about 1.1 µM and inactive = higher.

Columns and labels:
Assay in all cases: NCI anticancer screen, dose series, 48 h
EKVX = tested on: EKVX
HCT-15 = tested on: HCT-15
KM12 = tested on: KM12
LOX IMVI = tested on: LOX IMVI
Malme-3M = tested on: Malme-3M
NCI-H23 = tested on: NCI-H23
NCI-H460 = tested on: NCI-H460
NCI-H522 = tested on: NCI-H522
OVCAR-3 = tested on: OVCAR-3
OVCAR-8 = tested on: OVCAR-8
SF-539 = tested on: SF-539
SK-MEL-28 = tested on: SK-MEL-28
SNB-19 = tested on: SNB-19
TK-10 = tested on: TK-10
UACC-62 = tested on: UACC-62

Structure (SMILES)	GI50 (EKVX)	GI50 (HCT-15) [µM]	GI50 (KM12)	GI50 (LOX IMVI)	GI50 (Malme-3M)	GI50 (NCI-H23)	GI50 (NCI-H460)	GI50 (NCI-H522)	GI50 (OVCAR-3)	GI50 (OVCAR-8)	GI50 (SF-539)	GI50 (SK-MEL-28)	GI50 (SNB-19)	GI50 (TK-10)	GI50 (UACC-62)
CC1=NNC(=O)C1C1C=C(c2c[nH]c3ccccc23)OC1=O (configuration not stated)	> 100 µM (inactive)	> 100	21.7 µM (inactive)	> 100 µM (inactive)	> 100 µM (inactive)	> 100 µM (inactive)	> 100 µM (inactive)	> 100 µM (inactive)	> 100 µM (inactive)	> 100 µM (inactive)	> 100 µM (inactive)	> 100 µM (inactive)	> 100 µM (inactive)	> 100 µM (inactive)	> 100 µM (inactive)
COc1cccc(OCC(=N/NC(=O)c2ccncc2)/N=C/c2cccnc2)c1	> 100 µM (inactive)	> 100	> 100 µM (inactive)	> 100 µM (inactive)	> 100 µM (inactive)	> 100 µM (inactive)	> 100 µM (inactive)	> 100 µM (inactive)	> 100 µM (inactive)	86.3 µM (inactive)	> 100 µM (inactive)	> 100 µM (inactive)	> 100 µM (inactive)	> 100 µM (inactive)	> 100 µM (inactive)
O=C(CSC1=NC(=O)C2(NN1)c1ccccc1-c1ccccc12)NC(=S)Nc1ccccc1	4.04 µM (inactive)	> 10	> 10 µM (inactive)	> 10 µM (inactive)	> 10 µM (inactive)	> 10 µM (inactive)	> 10 µM (inactive)	7.03 µM (inactive)	–	> 10 µM (inactive)	> 10 µM (inactive)	> 10 µM (inactive)	> 10 µM (inactive)	> 10 µM (inactive)	> 10 µM (inactive)
COC1(OC)CC(CO)(CNc2nc(N)nc(Cl)c2/C=N\O)C1	22.7 µM (inactive)	75.5	7.05 µM (inactive)	22.7 µM (inactive)	20.8 µM (inactive)	9.77 µM (inactive)	37.4 µM (inactive)	6.67 µM (inactive)	21.7 µM (inactive)	54.7 µM (inactive)	38.8 µM (inactive)	48.9 µM (inactive)	40.7 µM (inactive)	25.9 µM (inactive)	–
COC(=O)/C=C(/C(=O)OC)c1c(C)cc2c(C)cc(C)cc(C)c1-2	32.1 µM (inactive)	4.56	5.11 µM (inactive)	11.7 µM (inactive)	11.5 µM (inactive)	18.5 µM (inactive)	19.9 µM (inactive)	7.48 µM (inactive)	10.2 µM (inactive)	25.4 µM (inactive)	9.12 µM (inactive)	24.3 µM (inactive)	9.89 µM (inactive)	27.1 µM (inactive)	9.77 µM (inactive)
CC(C)(C)/C(=N\Nc1nc2ccccc2[nH]1)c1ccccn1	–	43.1	86.5 µM (inactive)	> 100 µM (inactive)	9.18 µM (inactive)	82.8 µM (inactive)	> 100 µM (inactive)	33.9 µM (inactive)	24.3 µM (inactive)	> 100 µM (inactive)	> 100 µM (inactive)	> 100 µM (inactive)	> 100 µM (inactive)	24.7 µM (inactive)	> 100 µM (inactive)
Cc1nc2c(=S)n(C)ncc2[nH]1	> 100 µM (inactive)	> 100	> 100 µM (inactive)	> 100 µM (inactive)	0.0133 µM (active)	> 100 µM (inactive)	–	34 µM (inactive)	> 100 µM (inactive)	> 100 µM (inactive)	> 100 µM (inactive)	> 100 µM (inactive)	–	> 100 µM (inactive)	> 100 µM (inactive)
OCc1ccccc1O[C@H]1O[C@H](CO)[C@@H](O)[C@H](O)[C@H]1O	> 100 µM (inactive)	> 100	> 100 µM (inactive)	> 100 µM (inactive)	> 100 µM (inactive)	> 100 µM (inactive)	> 100 µM (inactive)	> 100 µM (inactive)	> 100 µM (inactive)	> 100 µM (inactive)	> 100 µM (inactive)	> 100 µM (inactive)	–	> 100 µM (inactive)	> 100 µM (inactive)
O=C(Nc1nc(C23CC4CC(CC(C4)C2)C3)cs1)c1c(O)c2ccccc2[nH]c1=O	> 100 µM (inactive)	> 100	> 100 µM (inactive)	> 100 µM (inactive)	> 100 µM (inactive)	> 100 µM (inactive)	> 100 µM (inactive)	> 100 µM (inactive)	> 100 µM (inactive)	> 100 µM (inactive)	> 100 µM (inactive)	> 100 µM (inactive)	> 100 µM (inactive)	> 100 µM (inactive)	–
CCN1CC2(COC)C(O)CC(OC)C34C5CC6(O)C(OC)C=C(C5C6OC(=O)c5ccc(OC)c(OC)c5)C(C(OC)C23)C14 (configuration not stated)	> 7.5 µM (inactive)	> 7.5	> 7.5 µM (inactive)	> 7.5 µM (inactive)	> 7.5 µM (inactive)	> 7.5 µM (inactive)	> 7.5 µM (inactive)	> 7.5 µM (inactive)	–	> 7.5 µM (inactive)	> 7.5 µM (inactive)	> 7.5 µM (inactive)	> 7.5 µM (inactive)	> 7.5 µM (inactive)	> 7.5 µM (inactive)
CC1CCC(C(C)C)C(OC(=O)NCn2cc(-c3ccccc3)nn2)C1 (configuration not stated)	> 100 µM (inactive)	> 100	> 100 µM (inactive)	> 100 µM (inactive)	> 100 µM (inactive)	> 100 µM (inactive)	> 100 µM (inactive)	> 100 µM (inactive)	–	75.5 µM (inactive)	48.3 µM (inactive)	> 100 µM (inactive)	33.9 µM (inactive)	75.5 µM (inactive)	–
CC(=O)Nc1ccc2c(c1)[nH]c(=O)c1cc(Cl)ccc12	26.2 µM (inactive)	33.1	26.5 µM (inactive)	19.5 µM (inactive)	17.1 µM (inactive)	17.1 µM (inactive)	10.4 µM (inactive)	27.1 µM (inactive)	–	10 µM (inactive)	40.1 µM (inactive)	38.8 µM (inactive)	65.9 µM (inactive)	15.2 µM (inactive)	12.3 µM (inactive)
OC(c1cc2ccc(C(F)(F)F)cc2c2cc(C(F)(F)F)ccc12)C1CCCCN1 (configuration not stated)	0.428 µM (active)	1.79	2.07 µM (inactive)	1.26 µM (inactive)	0.0498 µM (active)	1.66 µM (inactive)	1.95 µM (inactive)	1.7 µM (inactive)	1.63 µM (inactive)	–	1.69 µM (inactive)	1.91 µM (inactive)	1.84 µM (inactive)	1.73 µM (inactive)	2.06 µM (inactive)
COc1ccc2c(O)c(S(=O)(=O)c3ccc(C)cc3)c(=O)oc2c1OC	> 100 µM (inactive)	> 100	> 100 µM (inactive)	–	> 100 µM (inactive)	> 100 µM (inactive)	> 100 µM (inactive)	> 100 µM (inactive)	> 100 µM (inactive)	> 100 µM (inactive)	> 100 µM (inactive)	> 100 µM (inactive)	> 100 µM (inactive)	> 100 µM (inactive)	> 100 µM (inactive)
